{"source": "patent US6790619B2", "about": "“Plant phosphomevalonate kinases” (Bayer Aktiengesellschaft, priority 2000, dated 2004)", "tested_on": "PMVK expression", "experiment": "virtual Northern blot analysis of differential PMVK expression in response to chlorsulfuron", "format": "in vivo, Arabidopsis thaliana cv. Columbia", "details": "Arabidopsis plants harvested 24 hours after treatment with chlorsulfuron 10 g/ha vs control treatment", "method": "Suppression subtractive hybridization constitutes a method of isolating differentially expressed genes. The two samples to be compared were on the one hand Arabidopsis plants which had been harvested 24 hours after treatment with a herbicide (chlorsulfuron, 10 g/ha) and, on the other hand, Arabidopsis plants which had been harvested 24 hours after a control treatment. The 370 bp PMVK fragment was isolated from the chlorsulfuron-treated plants in which PMVK transcription may have been induced by the treatment. To verify differential PMVK expression in the response to chlorsulfuron, so-called virtual Northern blot analyses were carried out. In a virtual Northern blot, cDNA is prepared from total RNA with Clontech's SMART method (see manufacturer's instructions) and amplified by PCR. A low enough number of PCR cycles is employed so that the amplification is still within the linear range of the PCR. In the present case, an optimum between 15 and 18 cycles emerged. The SMART cDNA is separated on an agarose gel by methods known to the skilled worker, transferred to a nylon membrane and hybridized with a DIG-labelled probe. This method permits study of the expression even of genes with a low expression level.", "note": "“Also recorded” adds a separate entry of the source."}
{"smiles": "COc1nc(C)nc(NC(=O)NS(=O)(=O)c2ccccc2Cl)n1", "note": "[chlorsulfuron]", "values": [{"measurement": "induction of PMVK expression", "result": "low degree of induction; also recorded: possible to induce this gene"}]}
